# Measured values reported in US20230117324A1, “OXAZINE MONOACYLGLYCEROL LIPASE (MAGL) INHIBITORS” (Hoffmann-La Roche Inc., priority 2018, published 2023).
# pIC50: −log10 of the molar value.
# Target: T1, MAGL (Homo sapiens, UniProt Q99685)
# T1 sequence (Q99685 1-303): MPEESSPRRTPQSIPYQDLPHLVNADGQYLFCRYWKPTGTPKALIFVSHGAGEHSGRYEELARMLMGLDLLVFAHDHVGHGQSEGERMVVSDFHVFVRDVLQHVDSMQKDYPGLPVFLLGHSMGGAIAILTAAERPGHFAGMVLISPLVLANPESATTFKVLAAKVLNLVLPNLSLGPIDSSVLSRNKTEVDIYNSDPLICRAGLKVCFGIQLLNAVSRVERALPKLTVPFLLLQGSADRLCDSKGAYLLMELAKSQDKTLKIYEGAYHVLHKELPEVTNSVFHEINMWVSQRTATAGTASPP
# Experiment: MAGL inhibition, 2-AG assay (hydrolysis of 2-arachidonoylglycerol, arachidonic acid by mass spectrometry)
# Assay type: biochemical
# Conditions: 2-AG assay (footnote [b])
# Method in brief: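 Human MAGL […] was preincubated 15 min at RT with compound ([…], 3-fold steps) in 50 mM Tris, 1 mM EDTA, 0.01% Tween. 2-AG (8 μM) was then added for 30 min at RT. Arachidonic acid was quantified by RapidFire SPE–triple quadrupole MS in negative ESI as its ratio to a d8-arachidonic acid standard.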
row,SMILES,pIC50
1,"O=C1CO[C@H]2CCN(C(=O)N3CC(c4ccc(Br)cc4)C3)C[C@H]2N1 [Example 110, (4aR,8aS)-6-[3-(4-bromophenyl)azetidine-1-carbonyl]-4,4a,5,7,8,8a-hexahydropyrido[4,3-b][1,4]oxazin-3-one]",7.54
2,"CC(OC1CN(C(=O)N2CC[C@@H]3OCC(=O)N[C@@H]3C2)C1)c1ccc(C(F)(F)F)cc1 (stereo partly drawn) [Example 90, (4aR,8aS)-6-[3-[1-[4-(Trifluoromethyl)phenyl]ethoxy]azetidine-1-carbonyl]-4,4a,5,7,8,8a-hexahydropyrido[4,3-b][1,4]oxazin-3-one]",7.31
3,"CC(C)(C)[Si](C)(C)OCCn1cc(C2CCN(C(=O)N3CC[C@@H]4OCC(=O)NC4C3)CC2)c2cc(Cl)ccc21 (stereo in doubt) [Example 268, (4aS,8aS)-6-[4-[1-[2-[tert-Butyl(dimethyl)silyl]oxyethyl]-5-chloro-indol-3-yl]piperidine-1-carbonyl]-4,4a,5,7,8,8a-hexahydropyrido[4,3-b][1,4]oxazin-3-one]",6.17
4,"CS(=O)(=O)c1cccc(C(c2cccnc2)C2CCN(C(=O)N3CC[C@@H]4OCC(=O)N[C@@H]4C3)CC2)c1 (single isomer, unassigned) [Example 175, (4aR,8aS)-6-[4-[(R or S)-(3-methylsulfonylphenyl)-(3-pyridyl)methyl]piperidine-1-carbonyl]-4,4a,5,7,8,8a-hexahydropyrido[4,3-b][1,4]oxazin-3-one]",6.94
5,"CC(OC1CCN(C(=O)N2CC[C@@H]3OCC(=O)N[C@@H]3C2)CC1)c1ccc(C(F)(F)F)cc1 (stereo partly drawn) [Example 93, (4aR,8aS)-6-[4-[1-[4-(Trifluoromethyl)phenyl]ethoxy]piperidine-1-carbonyl]-4,4a,5,7,8,8a-hexahydropyrido [4,3-b][1,4]oxazin-3-one]",7.14
6,"O=C1CO[C@H]2CCN(C(=O)N3CCC(C(c4ccc(F)cc4)c4nc(C5CC5)no4)CC3)C[C@H]2N1 (single isomer, unassigned) [Example 95, (4aR,8aS)-6-(4-((S or R)-(3-Cyclopropyl-1,2,4-oxadiazol-5-yl)(4-fluorophenyl)methyl)piperidine-1-carbonyl)hexahydro-2H-pyrido[4,3-b][1,4]oxazin-3(4H)-one]",7.80
7,"O=C1CO[C@H]2CCN(C(=O)N3CC(c4ccc(OC(F)(F)F)cc4Cl)C3)C[C@H]2N1 [Example 205, (4aR,8aS)-6-(3-(2-Chloro-4-(trifluoromethoxy)phenyl)azetidine-1-carbonyl)hexahydro-2H-pyrido[4,3-b][1,4]oxazin-3(4H)-one]",7.74
8,"COc1ccc(C(c2ccncc2)C2CCN(C(=O)N3CC[C@@H]4OCC(=O)N[C@@H]4C3)CC2)cc1OC (single isomer, unassigned) [Example 149, (4aR,8aS)-6-[4-[(R or S)-(3,4-Dimethoxyphenyl)-(4-pyridyl)methyl]piperidine-1-carbonyl]-4,4a,5,7,8,8a-hexahydropyrido[4,3-b][1,4]oxazin-3-one]",7.29
9,"O=C1CO[C@H]2CCN(C(=O)N3CC(C(OCC(F)(F)F)c4ccc(F)cc4)C3)C[C@H]2N1 (single isomer, unassigned) [Example 106, (4aR,8aS)-6-[3-(R or S)-[(4-Fluorophenyl)-(2,2,2-trifluoroethoxy)methyl]azetidine-1-carbonyl]-4,4a,5,7,8,8a-hexahydropyrido[4,3-b][1,4]oxazin-3-one]",6.50
10,"CC(c1ccc(C(F)(F)F)cc1)C1CN(C(=O)N2CC[C@@H]3OCC(=O)N[C@@H]3C2)C1 (single isomer, unassigned) [Example 104, (4aR,8aS)-6-(3-((R or S)-1-(4-(Trifluoromethyl)phenyl)ethyl)azetidine-1-carbonyl)hexahydro-2H-pyrido[4,3-b][1,4]oxazin-3(4H)-one]",6.95
11,"O=C1CO[C@H]2CCN(C(=O)N3CCC(c4ccc(Br)cc4)C3)C[C@H]2N1 (stereo partly drawn) [Example 184, (4aR,8aS)-6-(3-(4-Bromophenyl)pyrrolidine-1-carbonyl)hexahydro-2H-pyrido[4,3-b][1,4]oxazin-3(4H)-one]",6.84
12,"CC1CN(c2cc(C3CN(C(=O)N4CC[C@@H]5OCC(=O)N[C@@H]5C4)C3)ccc2OC(F)(F)F)C1 [Example 227, (4aR,8aS)-6-(3-(3-(3-Methylazetidin-1-yl)-4-(trifluoromethoxy)phenyl)azetidine-1-carbonyl)hexahydro-2H-pyrido[4,3-b][1,4]oxazin-3(4H)-one]",7.85
13,"O=C1CO[C@H]2CCN(C(=O)N3CC(c4ccc(Br)c(Cl)c4)C3)C[C@H]2N1 [Example 132, (4aR,8aS)-6-(3-(4-Bromo-3-chlorophenyl)azetidine-1-carbonyl)hexahydro-2H-pyrido[4,3-b][1,4]oxazin-3(4H)-one]",8.00

# Compounds with a higher pIC50, results first:
row,pIC50,SMILES
1,10.00,"CC(C)(C)COc1ccc(C2CN(C(=O)N3CC[C@@H]4OCC(=O)N[C@@H]4C3)C2)cc1 [Example 278, (4aR,8aS)-6-(3-(4-(Neopentyloxy)phenyl)azetidine-1-carbonyl)hexahydro-2H-pyrido[4,3-b][1,4]oxazin-3(4H)-one]"
2,8.70,"O=C1CO[C@H]2CCN(C(=O)N3CC(c4ccc(N5CCC(C(F)(F)F)C5)nc4)C3)C[C@H]2N1 (single isomer, unassigned) [Example 274, (4aR,8aS)-6-[3-[6-[3-(R or S)-(Trifluoromethyl)pyrrolidin-1-yl]-3-pyridyl]azetidine-1-carbonyl]-4,4a,5,7,8,8a-hexahydropyrido[4,3-b][1,4]oxazin-3-one]"
3,8.70,"COC(=O)C(C)(C)c1ccc(C2CN(C(=O)N3CC[C@@H]4OCC(=O)N[C@@H]4C3)C2)cc1 [Example 234, Methyl 2-methyl-2-(4-(1-((4aR,8aS)-3-Oxooctahydro-2H-pyrido[4,3-b][1,4]oxazine-6-carbonyl)azetidin-3-yl)phenyl)propanoate]"
4,9.00,"O=C1CO[C@H]2CCN(C(=O)N3CC(c4ccc(-c5ccc(Cl)cc5Cl)nc4)C3)C[C@H]2N1 [Example 154, (4aR,8aS)-6-(3-(6-(2,4-Dichlorophenyl)pyridin-3-yl)azetidine-1-carbonyl)hexahydro-2H-pyrido[4,3-b][1,4]oxazin-3(4H)-one]"
5,8.30,"CCCOc1ccc(C2CN(C(=O)N3CC[C@@H]4OCC(=O)N[C@@H]4C3)C2)cc1 [Example 258, (4aR,8aS)-6-[3-(4-Propoxyphenyl)azetidine-1-carbonyl]-4,4a,5,7,8,8a-hexahydropyrido[4,3-b][1,4]oxazin-3-one]"
6,10.00,"N#Cc1cccc(Cl)c1-c1ccc(C2CN(C(=O)N3CC[C@@H]4OCC(=O)N[C@@H]4C3)C2)cc1 [Example 166, 2-[4-[1-[(4aR,8aS)-3-Oxo-4,4a,5,7,8,8a-hexahydropyrido[4,3-b][1,4]oxazine-6-carbonyl]azetidin-3-yl]phenyl]-3-chloro-benzonitrile]"
7,8.05,"O=C1CO[C@H]2CCN(C(=O)N3CC(c4ccc(S(F)(F)(F)(F)F)cc4)C3)C[C@H]2N1 [Example 180, (4aR,8aS)-6-(3-(4-(Pentafluoro-16-sulfaneyl)phenyl)azetidine-1-carbonyl)hexahydro-2H-pyrido[4,3-b][1,4]oxazin-3(4H)-one]"
8,8.52,"CCNC(=O)c1cc(C)ccc1-c1ccc(C2CN(C(=O)N3CC[C@@H]4OCC(=O)N[C@@H]4C3)C2)cc1 [Example 260, 2-[4-[1-[(4aR,8aS)-3-Oxo-4,4a,5,7,8,8a-hexahydropyrido[4,3-b][1,4]oxazine-6-carbonyl]azetidin-3-yl]phenyl]-N-ethyl-5-methyl-benzamide]"
9,10.00,"Cc1ccc(C(c2ccccc2)C2CCN(C(=O)N3CC[C@@H]4OCC(=O)N[C@@H]4C3)CC2)cc1 (single isomer, unassigned) [Example 84, (4aR,8aS)-6-[4-[(S or R)-Phenyl(p-tolyl)methyl]piperidine-1-carbonyl]-4,4a,5,7,8,8a-hexahydropyrido[4,3-b][1,4]oxazin-3-one]"
10,8.70,"O=C1CO[C@H]2CCN(C(=O)N3CCC(C(c4ccc(F)cc4)c4nc(C5CC5)no4)CC3)C[C@H]2N1 (single isomer, unassigned) [Example 94, (4aR,8aS)-6-(4-((R or S)-(3-Cyclopropyl-1,2,4-oxadiazol-5-yl)(4-fluorophenyl)methyl)piperidine-1-carbonyl)hexahydro-2H-pyrido[4,3-b][1,4]oxazin-3(4H)-one]"
11,9.10,CS(=O)(=O)c1ccc(-c2ccc(C3CN(C(=O)N4CC[C@@H]5OCC(=O)N[C@@H]5C4)C3)cc2)c(Cl)c1 [Example 155]
12,9.00,"O=C1CO[C@H]2CCN(C(=O)N3CC(c4ccc(-c5ccc(Cl)cc5Cl)cn4)C3)C[C@H]2N1 [Example 193, (4aR,8aS)-6-(3-(5-(2,4-Dichlorophenyl)pyridin-2-yl)azetidine-1-carbonyl)hexahydro-2H-pyrido[4,3-b][1,4]oxazin-3(4H)-one]"
13,8.22,"CC1CN(c2ccc(C3CN(C(=O)N4CC[C@@H]5OCC(=O)N[C@@H]5C4)C3)cc2Cl)C1 [Example 224, (4aR,8aS)-6-(3-(3-Chloro-4-(3-methylazetidin-1-yl)phenyl)azetidine-1-carbonyl)hexahydro-2H-pyrido[4,3-b][1,4]oxazin-3(4H)-one]"
